According to patent EP0603240B1, “SAFENING HERBICIDAL PYRAZOLYLSULFONYLUREAS” (priority 1991, dated 1993):

Tests used:
Assay type in all cases: in vivo
corn [1] = assay: Example 6, Procedure II: Herbicide No. 1 + alachlor (No. 7) with antidotes
Procedure, shortened: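 Herbicide No. 1 plus alachlor and antidote, each applied in acetone, mixed into silt loam cover soil over seeded corn; untreated and herbicide-only controls included. Given initial overhead irrigation equal to 0.6 cm rainfall, then greenhouse sub-irrigation. Percent injury scored, duplicate averages; efficacy is injury without minus with antidote.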

[2] = test system: barnyardgrass (Echinochloa crusgalli); assay: Example 8, Procedure II: Herbicide No. 1 + butachlor (No. 9) with antidotes
Description: (§1) Containers were filled and compacted with a fumigated silt loam top soil to a depth of about 1.3 cm from the top of the container. A first container was designated as an untreated control, a second container was designated as a herbicide control, and a third container was designated as a herbicide + antidote test container. Each of the containers was seeded with a crop species. A measured amount of herbicide dispersed or dissolved in acetone was applied to a measured quantity of soil. To this same quantity of soil treated with herbicide, there was added a measured amount of antidote dispersed or dissolved in acetone. The quantity of soil treated with the herbicide and antidote was thoroughly mixed to incorporate the herbicide and antidote in the soil uniformly. The seed bed in the third container of soil was covered with the soil treated with the herbicide and antidote and the container was leveled. For each test series, the seed beds of the first and second containers were likewise covered by soil layers. the cover layer of the first container was not treated with herbicide or antidote.
(§2) The containers were then placed on a bench in a greenhouse and sub-irrigated as required for the duration of the test. […] Plant response is measured in terms of percent injury. Antidote efficacy is indicated as the difference in plant injury by the herbicide(s) without the antidote and with the antidote.
(§3) This procedure is the same as Procedure I, but modified in the manner that after incorporation of the chemicals (herbicide and antidote) the containers with the covered seedbed were treated with an initial overhead irrigation equivalent to 0.6 cm rainfall, then subsequently sub-irrigated as required on greenhouse benches.
(§4) In the series of greenhouse tests described below, for routine screening purposes the herbicide/antidote compositions were tested in crop/weed combinations involving corn as the crop and either or both of the weeds barnyardgrass (Echinochloa crusgalli), a monocotyledonous weed, and velvetleaf (Abutilon theophrasti), a dicotyledonous weed. In the tables below, these weeds are indicated by the symbols "BYG" and "VL", respectively.
(§5) In this test, the efficacy of the same five antidotes used in Examples 6 and 7 was investigated in compositions comprising Herbicide No. 1 and as a co-herbicide, butachlor (Herbicide No. 9), active ingredient in MACHETE® herbicide, a leading commercial rice herbicide. The test procedure used in this example was the same as that in Examples 6 and 7.

[3] = test system: velvetleaf (Abutilon theophrasti); assay: as above
Description: as §1, §2, §3, §4, §5

[4] = test system: barnyardgrass (Echinochloa crusgalli); assay: Example 10, Procedure II: Herbicide No. 1 + propachlor (No. 5) with antidotes
Description: as §1, §2, §3, §4
(§6) In this test, the safening effect of various antidotes on the herbicidal combination of Herbicide No. 1 and another α-chloroacetanilide co-herbicide, propachlor, (Herbicide No. 5) was investigated. Propachlor is the active ingredient in the commercial herbicide RAMROD®. Procedure II was also used in this test as in the preceding example.

[5] = test system: velvetleaf (Abutilon theophrasti); assay: as above
Description: as §1, §2, §3, §4, §6

corn [6] = assay: Example 13, Procedure II: Herbicide No. 1 + acetochlor (No. 6) with dichloroacetamide antidotes
Procedure, shortened: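 Corn seeded in silt loam, covered with soil into which herbicide No. 1 plus acetochlor and dichloroacetamide antidote (acetone) were incorporated, velvetleaf present. Initial overhead irrigation equivalent to 0.6 cm rainfall, then greenhouse sub-irrigation. Percent injury scored; safening taken as injury difference without versus with antidote.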

corn [7] = assay: Example 18, Procedure II: Herbicide No. 1 + ERADICANE (EPTC + R-25788) with auxiliary antidotes
Description: as §1, §2, §3
(§7) In the test reported in this example, the herbicidal composition was similar to that used in Example 16 in that Herbicide No. 1 was combined with EPTC (Herbicide No. 4) as a co-herbicide and the antidotes included Nos. 1, 2, 7, 13 and 15. However, in this test the EPTC was introduced as a formulation of ERADICANE (EPTC + the antidote R-25788, i.e., Antidote No. 1) at an application rate of 8.96 kg/ha. Thus, in this test two antidotes were present, viz. R-25788 and one of the auxilliary antidotes, No. 2, 13 and 15.
Test procedures were those of Procedure II above.

corn [8] = assay: Example 19, Procedure II: Herbicide No. 1 + ERADICANE EXTRA with added antidotes
Description: as §1, §2, §3, §7
The test reported in this example was performed in the same manner and with the same antidotes used in Example 18, the only difference being the substitution of the commercial herbicidal product ERADICANE® EXTRA for ERADICANE®. ERADICANE EXTRA is a formulation containing both an antidote, i.e., R-29148 (Antidote No. 5 herein), and an extender, dietholate.

corn [9] = assay: Example 3, Procedure I: antidotes against Herbicide No. 1
Procedure, shortened: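 Herbicide and antidote, each in acetone, mixed into a soil layer covering the seeded corn bed; untreated and herbicide-only controls run alongside. Greenhouse, sub-irrigated, barnyardgrass present; herbicide 4.48 down to 0.56 kg/ha. Percent injury scored; efficacy = injury without minus with antidote.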

[10] = Herbicide No.1 0.14 + No.7 4.48 kg/ha + antidote 2.24 kg/ha
[11] = Herbicide No.1 0.14 + No.7 4.48 kg/ha + antidote 8.96 kg/ha
[12] = Herbicide No.1 0.56 + No.7 4.48 kg/ha + antidote 2.24 kg/ha
[13] = Herbicide No.1 0.56 + No.7 4.48 kg/ha + antidote 8.96 kg/ha
[14] = Herbicide No.1 0.14 + No.9 2.24 kg/ha + antidote 2.24 kg/ha
[15] = Herbicide No.1 0.14 + No.9 2.24 kg/ha + antidote 8.96 kg/ha
[16] = Herbicide No.1 0.56 + No.9 2.24 kg/ha + antidote 2.24 kg/ha
[17] = Herbicide No.1 0.56 + No.9 2.24 kg/ha + antidote 8.96 kg/ha
[18] = Herbicide No.1 0.14 kg/ha + Herbicide No.5 4.48 kg/ha, antidote rate 2.24 kg/ha
[19] = Herbicide No.1 0.14 kg/ha + Herbicide No.5 4.48 kg/ha, antidote rate 8.96 kg/ha
[20] = Herbicide No.1 0.56 kg/ha + Herbicide No.5 4.48 kg/ha, antidote rate 2.24 kg/ha
[21] = Herbicide No.1 0.56 kg/ha + Herbicide No.5 4.48 kg/ha, antidote rate 8.96 kg/ha
[22] = Herbicide No.1 0.56 kg/ha + Herbicide No.6 4.48 kg/ha, antidote rate 0.56 kg/ha
[23] = Herbicide No.1 0.56 kg/ha + Herbicide No.6 4.48 kg/ha, antidote rate 2.24 kg/ha
[24] = Herbicide No.6 4.48 kg/ha, no Herbicide No.1, antidote rate 0.56 kg/ha
[25] = Herbicide No.6 4.48 kg/ha, no Herbicide No.1, antidote rate 2.24 kg/ha
[26] = Herbicide No.1 0.56 kg/ha + ERADICANE 8.96 kg/ha, antidote 2.24 kg/ha
[27] = Herbicide No.1 0.56 kg/ha + ERADICANE 8.96 kg/ha, antidote 8.96 kg/ha
[28] = Herbicide No.1 1.12 kg/ha + ERADICANE 8.96 kg/ha, antidote 2.24 kg/ha
[29] = Herbicide No.1 1.12 kg/ha + ERADICANE 8.96 kg/ha, antidote 8.96 kg/ha
[30] = Herbicide No.1 0.56 kg/ha + ERADICANE EXTRA 8.96 kg/ha, antidote 2.24 kg/ha
[31] = Herbicide No.1 0.56 kg/ha + ERADICANE EXTRA 8.96 kg/ha, antidote 8.96 kg/ha
[32] = Herbicide No.1 1.12 kg/ha + ERADICANE EXTRA 8.96 kg/ha, antidote 2.24 kg/ha
[33] = Herbicide No.1 1.12 kg/ha + ERADICANE EXTRA 8.96 kg/ha, antidote 8.96 kg/ha

C=CCN(CC=C)C(=O)C(Cl)Cl [compound 1]
% Injury Corn (corn [1]; [10]): 10%
% Injury Corn (corn [1]; [11]): 0%
% Injury Corn (corn [1]; [12]): 15%
% Injury Corn (corn [1]; [13]): 5%
% Injury BYG [2, 14]: 99%
% Injury BYG [2, 15]: 99%
% Injury BYG [2, 16]: 98%
% Injury BYG [2, 17]: 99%
% Injury VL [3, 14]: 70%
% Injury VL [3, 15]: 70%
% Injury VL [3, 16]: 85%
% Injury VL [3, 17]: 80%
% Injury BYG [4, 18]: 99%
% Injury BYG [4, 19]: 99%
% Injury BYG [4, 20]: 98%
% Injury BYG [4, 21]: 99%
% Injury VL [5, 18]: 75%
% Injury VL [5, 19]: 70%
% Injury VL [5, 20]: 70%
% Injury VL [5, 21]: 80%
% Injury Corn (corn [6]; [22]): 5%
% Injury Corn (corn [6]; [23]): 10%
% Injury Corn (corn [6]; [24]): 20%
% Injury Corn (corn [6]; [25]): 10%
% Injury Corn (corn [7]; [26]): 30%
% Injury Corn (corn [7]; [27]): 25%
% Injury Corn (corn [7]; [28]): 35%
% Injury Corn (corn [7]; [29]): 25%
% Injury Corn (corn [8]; [30]): 35%
% Injury Corn (corn [8]; [31]): 15%
% Injury Corn (corn [8]; [32]): 35%
% Injury Corn (corn [8]; [33]): 25%

CC1(C)OC(c2ccco2)CN1C(=O)C(Cl)Cl (centres unmarked) [compound 15]
% Injury Corn (corn [9]; Herb. No. 1 0.56 kg/ha + antidote 0.56 kg/ha): 0%
% Injury Corn (corn [9]; Herb. No. 1 0.56 kg/ha + antidote 2.24 kg/ha): 0%
% Injury Corn (corn [9]; Herb. No. 1 0.56 kg/ha + antidote 8.96 kg/ha): 0%
% Injury Corn (corn [9]; Herb. No. 1 1.12 kg/ha + antidote 0.56 kg/ha): 0%
% Injury Corn (corn [9]; Herb. No. 1 1.12 kg/ha + antidote 2.24 kg/ha): 0%
% Injury Corn (corn [9]; Herb. No. 1 1.12 kg/ha + antidote 8.96 kg/ha): 0%
% Injury Corn (corn [9]; Herb. No. 1 2.24 kg/ha + antidote 0.56 kg/ha): 15%
% Injury Corn (corn [9]; Herb. No. 1 2.24 kg/ha + antidote 2.24 kg/ha): 0%
% Injury Corn (corn [9]; Herb. No. 1 2.24 kg/ha + antidote 8.96 kg/ha): 0%
% Injury Corn (corn [9]; Herb. No. 1 4.48 kg/ha + antidote 0.56 kg/ha): 0%
% Injury Corn (corn [9]; Herb. No. 1 4.48 kg/ha + antidote 2.24 kg/ha): 5%
% Injury Corn (corn [9]; Herb. No. 1 4.48 kg/ha + antidote 8.96 kg/ha): 0%
% Injury Corn (corn [9]; antidote 8.96 kg/ha alone, no herbicide): 0%
% Injury Corn (corn [1]; [10]): 20%
% Injury Corn (corn [1]; [11]): 10%
% Injury Corn (corn [1]; [12]): 15%
% Injury Corn (corn [1]; [13]): 15%
% Injury BYG [2, 14]: 99%
% Injury BYG [2, 15]: 98%
% Injury BYG [2, 16]: 95%
% Injury BYG [2, 17]: 97%
% Injury VL [3, 14]: 85%
% Injury VL [3, 15]: 70%
% Injury VL [3, 16]: 80%
% Injury VL [3, 17]: 75%
% Injury BYG [4, 18]: 98%
% Injury BYG [4, 19]: 90%
% Injury BYG [4, 20]: 93%
% Injury BYG [4, 21]: 85%
% Injury VL [5, 18]: 70%
% Injury VL [5, 19]: 80%
% Injury VL [5, 20]: 80%
% Injury VL [5, 21]: 75%
% Injury Corn (corn [6]; [22]): 5%
% Injury Corn (corn [6]; [23]): 15%
% Injury Corn (corn [6]; [24]): 5%
% Injury Corn (corn [6]; [25]): 15%
% Injury Corn (corn [7]; [26]): 25%
% Injury Corn (corn [7]; [27]): 25%
% Injury Corn (corn [7]; [28]): 15%
% Injury Corn (corn [7]; [29]): 30%
% Injury Corn (corn [8]; [30]): 20%
% Injury Corn (corn [8]; [31]): 30%
% Injury Corn (corn [8]; [32]): 25%
% Injury Corn (corn [8]; [33]): 25%
